Article PMC5291822 (Bioorganic & medicinal chemistry, 2016)

Molecular target: T1, human GVIA iPLA2 (Homo sapiens, UniProt O60733)
T1 sequence (O60733 1-806): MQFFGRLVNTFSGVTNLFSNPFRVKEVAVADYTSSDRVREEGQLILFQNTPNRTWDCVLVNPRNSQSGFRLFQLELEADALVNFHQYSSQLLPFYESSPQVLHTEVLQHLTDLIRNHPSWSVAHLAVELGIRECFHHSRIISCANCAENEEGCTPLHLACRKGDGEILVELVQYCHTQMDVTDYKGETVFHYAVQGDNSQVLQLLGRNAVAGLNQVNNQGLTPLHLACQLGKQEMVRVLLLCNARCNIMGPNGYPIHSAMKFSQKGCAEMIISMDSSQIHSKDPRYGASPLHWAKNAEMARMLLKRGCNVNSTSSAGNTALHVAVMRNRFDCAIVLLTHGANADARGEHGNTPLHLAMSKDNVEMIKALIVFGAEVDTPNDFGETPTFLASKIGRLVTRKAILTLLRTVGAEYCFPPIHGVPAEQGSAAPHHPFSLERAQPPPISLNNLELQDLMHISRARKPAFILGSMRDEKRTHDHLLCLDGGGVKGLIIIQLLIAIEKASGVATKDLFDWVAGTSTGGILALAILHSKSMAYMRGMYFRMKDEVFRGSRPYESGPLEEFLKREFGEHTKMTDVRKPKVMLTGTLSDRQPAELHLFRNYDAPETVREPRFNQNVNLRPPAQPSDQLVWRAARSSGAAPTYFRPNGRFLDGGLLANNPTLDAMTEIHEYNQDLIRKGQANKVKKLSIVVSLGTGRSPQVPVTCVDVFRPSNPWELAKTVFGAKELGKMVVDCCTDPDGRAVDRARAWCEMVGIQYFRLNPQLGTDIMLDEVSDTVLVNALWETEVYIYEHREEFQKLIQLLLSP
Assay: mixed micelle modified Dole assay, GVIA iPLA2
Format: biochemical
Settings: for XI(50) GVIA iPLA2: mole fraction of inhibitor in total substrate interface giving 50% inhibition

SMILES | inhibitory activity on GVIA iPLA2 (in words) | IC50 [µM] | XI(50) GVIA iPLA2 [mole fraction] | times more potent inhibition of GVIA iPLA2 than of GIVA cPLA2 (selectivity GVIA iPLA2 over GIVA cPLA2)
CCCC[C@H](NC(=O)C(=O)CCCCc1ccccc1)C(=O)NCC(=O)O [13a, (S)-2-(2-(2-Oxo-6-phenylhexanamido)hexanamido)acetic acid] | totally inactive |  |  | 
CCCC[C@H](NC(=O)C(=O)CCCCc1ccc2ccccc2c1)C(=O)NCC(=O)O [13b, (S)-2-(2-(6-(Naphthalen-2-yl)-2-oxohexanamido)hexanamido) acetic acid] | totally inactive |  |  | 
CCCC[C@@H](COCC(=O)O)NC(=O)C(=O)CCCCc1ccc(OC)cc1 [20d, (S)-2-((2-(6-(4-Methoxyphenyl)-2-oxohexanamido)hexyl)oxy)acetic acid] | totally inactive |  |  | 
CCCC[C@H](NC(=O)C(=O)CCCCc1ccc(OC)cc1)C(=O)NCC(=O)OC(C)(C)C [compound 12c, (S)-tert-Butyl 2-(2-(6-(4-methoxyphenyl)-2-oxohexanamido)hexanamido)acetate] |  | 6.6 | 0.012 | 
CCCC[C@H](NC(=O)C(=O)CCCCc1ccc(OC)cc1)C(=O)NCCCC(=O)OC(C)(C)C [compound 12e, (S)-tert-Butyl 4-(2-(6-(4-methoxyphenyl)-2-oxohexanamido)hexanamido)butanoate] |  | 3.8 | 0.007 | around 13 times
COc1ccc(CCCCC(=O)C(=O)N[C@@H](CC(C)C)C(=O)NCC(=O)OC(C)(C)C)cc1 [compound 22a, (S)-tert-Butyl 2-(2-(6-(4-methoxyphenyl)-2-oxohexanamido)-4-methylpentanamido)acetate] |  | 13 | 0.024 | 
CCCC[C@H](NC(=O)C(=O)CCCCc1ccc(OC)cc1)C(=O)NCC(=O)OCc1ccccc1 [compound 31a, (S)-Benzyl 2-(2-(6-(4-methoxyphenyl)-2-oxohexanamido)hexanamido)acetate] |  | 14 | 0.026 | 
